Here are results for eight molecules from paper PMC5934486, “Pheromone Binding Protein EhipPBP1 Is Highly Enriched in the Male Antennae of the Seabuckthorn Carpenterworm and Is Binding to Sex Pheromone Components” (Frontiers in Physiology, 2018).

Bounds are passed on as bounds.

Assay [1] concerns the target T1, recombinant EhipPBP1 (Eogystia hippophaecolus, UniProt A0A1B3P5J8). The experiment in a line: Binding of the fluorescent probe 1-NPN to EhipPBP1 (Scatchard analysis). Particulars: Scatchard method; 2 μM EhipPBP1, 1-NPN 2–20 μM, pH 7.4; read-out: dissociation constant (K1-NPN). As to the method:
N-phenyl-1-naphthylamine (1-NPN) was selected for use as a selectively fluorescent probe to measure the affinity of ligand binding to recombinant EhipPBP1 ([Yin et al., 2012]; [Zhong et al., 2012]). Seven pheromone and analog compounds were a gift from Professor Zhang Jintong of Shanxi Agricultural University (Table 1) and were >97% pure. A fluorescence binding assay was performed on a multiscan Spectrum Molecular Device SpectraMax i3 (Thermo Scientific, Wilmington, DE, United States) with an excitation wavelength of 337 nm and recording of emission spectra between 380 and 520 nm. Parameter selection was such that the slit widths for both excitation and emission were 10 nm. Spectra were recorded using high-speed scanning. 2 μM solution of EhipPBP1 was prepared in 20 mM Tris-HCl buffer (pH 7.4), and the ligands were dissolved in chromatographically pure methanol as 1 mM stock solutions. The affinity of EhipPBP1 for the labeled probe was determined by adding aliquots of 1-NPN stock solution to give final concentrations of 2–20 μM. […] To determine dissociation constants, intensity values corresponding to maximum fluorescence emission were plotted against free ligand concentrations. Assuming that the protein was 100% active and that the stoichiometric ratio between protein and ligand was 1:1 at saturation, the bound ligand was determined from the fluorescence intensity values. […]

Assay [2] concerns the target T1, recombinant EhipPBP1. The assay is described as follows: Fluorescence competitive binding assay with 1-NPN as probe. As to conditions: for inhibition: 1-NPN and EhipPBP1 both at 2 μM, read-out: Highest combined rate (%); for inhibition / IC50: pH 7.4; for IC50: concentration of competitor causing 50% reduction of 1-NPN fluorescence, 1-NPN and EhipPBP1 at 2 μM. Here is the method:
N-phenyl-1-naphthylamine (1-NPN) was selected for use as a selectively fluorescent probe to measure the affinity of ligand binding to recombinant EhipPBP1 ([Yin et al., 2012]; [Zhong et al., 2012]). Seven pheromone and analog compounds were a gift from Professor Zhang Jintong of Shanxi Agricultural University (Table 1) and were >97% pure. A fluorescence binding assay was performed on a multiscan Spectrum Molecular Device SpectraMax i3 (Thermo Scientific, Wilmington, DE, United States) with an excitation wavelength of 337 nm and recording of emission spectra between 380 and 520 nm. Parameter selection was such that the slit widths for both excitation and emission were 10 nm. Spectra were recorded using high-speed scanning. 2 μM solution of EhipPBP1 was prepared in 20 mM Tris-HCl buffer (pH 7.4), and the ligands were dissolved in chromatographically pure methanol as 1 mM stock solutions. The affinity of EhipPBP1 for the labeled probe was determined by adding aliquots of 1-NPN stock solution to give final concentrations of 2–20 μM. […] To determine dissociation constants, intensity values corresponding to maximum fluorescence emission were plotted against free ligand concentrations. Assuming that the protein was 100% active and that the stoichiometric ratio between protein and ligand was 1:1 at saturation, the bound ligand was determined from the fluorescence intensity values. EhipPBP1 binding with every component was replicated six times. The curves were then linearized using Scatchard plots to calculate K1-NPN values. Dissociation constants of the competitors (Ki) were calculated from the corresponding IC50 values by the following equation: Ki = [IC50]/(1 + [1–NPN]/K1-NPN), where [IC50] was the concentration of a competitor that caused a 50% reduction in the fluorescence intensity, [1–NPN] represented the free concentration of 1–NPN, and K1-NPN represented the dissociation constant of the complex of protein with 1–NPN ([Campanacci et al., 2001]).

Where [3] appears, read: calculated Kd values in competitive binding assays with 1-NPN.
Setting [4] is: calculated from IC50 by Ki = [IC50]/(1 + [1-NPN]/K1-NPN), Table 1.

T1 sequence (A0A1B3P5J8 entry or part of it): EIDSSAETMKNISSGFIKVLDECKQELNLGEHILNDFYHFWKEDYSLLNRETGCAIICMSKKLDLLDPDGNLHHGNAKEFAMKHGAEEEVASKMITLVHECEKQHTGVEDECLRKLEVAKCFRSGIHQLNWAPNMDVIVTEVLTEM

In the case of `c1ccc(Nc2cccc3ccccc23)cc1` [1-NPN, N-phenyl-1-naphthylamine], the Kd in assay [1] is 3.7 ± 0.06 µM.

Broadly, the IC50 is the concentration at which inhibition is half-maximal. Turning to `CCCCCCCCCC/C=C/CCOC(C)=O` [E3-14:Ac, (E)-3-tetradecenyl acetate], the inhibition in assay [2] (competitor 2–20 μM) is 89.4%. Moreover, the values for the Kd in assay [2] (setting [3]) and in assay [2] (setting [4]) were 1580 ± 210 nM and 1570 ± 210 nM, respectively. In addition, the IC50 in assay [2] is 2 µM.

`CCCC/C=C/CCCCCCCCOC(C)=O` [E9-14:Ac]: the inhibition in assay [2] (competitor 2–20 μM) worked out at 53.1%. Besides, the Kd in assay [2] (setting [3]) is 6300 ± 520 nM; in assay [2] (setting [4]) it was 6300 ± 521 nM. The IC50 in assay [2] amounted to 8 µM.

In the case of `CCCCCCCCCC/C=C\CCOC(C)=O` [Z3-14:Ac], in assay [2] (competitor 2–20 μM), the “binding to EhipPBP1 (result in words)” value is reported as “No binding was detected”.

Take `CCCCCCCCCCC=CCCO` [Z3-14:OH]: in assay [2] (competitor 2–20 μM), the inhibition turned out to be 56.5%. For the same molecule, the Kd in assay [2] (setting [3]) is 2360 ± 200 nM; in assay [2] (setting [4]), 2360 ± 201 nM. The IC50 in assay [2] stood at 3 µM.

For the molecule `CCCCCC/C=C\CCCCCCOC(C)=O` [Z7-14:Ac, (Z)-7-tetradecenyl acetate], the inhibition in assay [2] (competitor 2–20 μM) was 86.4%. Further, the Kd is 1180 ± 10 nM in assay [2] (setting [3]) and 1180 ± 12 nM in assay [2] (setting [4]). Besides, the IC50 in assay [2] was determined as 1.5 µM.

As to `CCCCCCC=CCCCCCCO` [Z7-14:OH], the inhibition in assay [2] (competitor 2–20 μM) turned out to be 62.3%. In assay [2] (setting [4]), the Kd was 3150 ± 321 nM. Moreover, the IC50 in assay [2] came out at 4 µM.

Take `CCCCC=CCCCCCCCCOC(C)=O` [Z9-14:Ac]: in assay [2] (competitor 2–20 μM), the inhibition was 37.9%. The “binding in the range of test concentrations” value in assay [2] (competitor 2–20 μM, Kd could not be calculated) is less than 50%.
